46 molecules from patent US9930890B2 (priority 2010, dated 2018) can be followed below.

One data set relates to Phytophthora infestans. It counts as in vivo. Particulars: tomato plants, protective spray, active ingredient concentration 100 ppm, evaluation 7 days after inoculation; 0% = control, 100% = no infection.
The conditions of data set [1]: for logp [a]: pH 2.7; for logp [b]: pH 7.8.

Take `CC(C)ON=Cc1cccc(C2CC(c3csc(C4CCN(C(=O)Cn5nc(C(F)F)cc5C(F)F)CC4)n3)=NO2)c1` (mixture of isomers) [I-6]: the Eff. % in the data set with Phytophthora infestans is on record as 100%.

Consider `Cc1cc(C(F)(F)F)nn1CC(=O)N1CCC(c2nc(C3=NOC(c4cccc(C=NOC(C)C)c4)C3)cs2)CC1` (mixture of isomers) [I-8], for which the Eff. % in the data set with Phytophthora infestans was determined as 100%.

As for `CC(=NOC(C)C)c1cccc(C2CC(c3csc(C4CCN(C(=O)Cn5nc(C(F)(F)F)cc5C)CC4)n3)=NO2)c1` (mixture of isomers) [I-9], the Eff. % in the data set on Phytophthora infestans was 100%.

Consider `CCON=Cc1cccc(C2CC(c3csc(C4CCN(C(=O)Cn5nc(C(F)(F)F)cc5C)CC4)n3)=NO2)c1` (mixture of isomers) [I-11], for which the Eff. % in the data set on Phytophthora infestans is given as 100%. For the same molecule, in data set [1], the “logp [a]” value was 3.8[a].

On to `CCON=Cc1cccc(C2CC(c3csc(C4CCN(C(=O)Nc5cc(Cl)ccc5C)CC4)n3)=NO2)c1` (mixture of isomers) [I-12], for which the Eff. % in the data set with Phytophthora infestans was determined as 95%.

`Cc1ccc(Cl)cc1NC(=O)N1CCC(c2nc(C3=NOC(c4cccc(C=NOC(C)C)c4)C3)cs2)CC1` (mixture of isomers) [I-13] gave an Eff. % in the data set on Phytophthora infestans of 100%. In addition, the “logp [a]” value in data set [1] was 4.4[a].

`CC(=NOC(C)C)c1cccc(C2CC(c3csc(C4CCN(C(=O)Cn5nc(C(F)F)cc5C(F)F)CC4)n3)=NO2)c1` (mixture of isomers) [I-20] showed an Eff. % in the data set on Phytophthora infestans of 100%.

For the molecule `CCON=Cc1cccc(C2CC(c3csc(C4CCN(C(=O)Cn5nc(C(F)F)cc5C(F)F)CC4)n3)=NO2)c1` (mixture of isomers) [I-24], the Eff. % in the data set on Phytophthora infestans is reported as 100%.

On to `CC(=NOC(C)C)c1ccccc1C1CC(c2csc(C3CCN(C(=O)Cn4nc(C(F)F)cc4C(F)F)CC3)n2)=NO1` (mixture of isomers) [I-28], for which the Eff. % in the data set on Phytophthora infestans is 100%.

In the data set with Phytophthora infestans, `CC(=NOC(C)C)c1ccccc1C1CC(c2csc(C3CCN(C(=O)Cn4nc(C(F)(F)F)cc4C)CC3)n2)=NO1` (mixture of isomers) [I-30] displayed an Eff. % of 100%.

On to `CCON=Cc1ccccc1C1CC(c2csc(C3CCN(C(=O)Nc4cc(Cl)ccc4C)CC3)n2)=NO1` (mixture of isomers) [I-33], for which the Eff. % in the data set with Phytophthora infestans turned out to be 100%.

The molecule `Cc1ccc(Cl)cc1NC(=O)N1CCC(c2nc(C3=NOC(c4ccccc4C=NOC(C)C)C3)cs2)CC1` (mixture of isomers) [I-37] displayed an Eff. % with Phytophthora infestans of 100%.

As for `Cc1cc(C(F)(F)F)nn1CC(=O)N1CCC(c2nc(C3=NOC(c4ccccc4C=NOC(C)C)C3)cs2)CC1` (mixture of isomers) [I-39], the Eff. % with Phytophthora infestans worked out at 100%.

The molecule `CC(C)ON=Cc1ccccc1C1CC(c2csc(C3CCN(C(=O)Cn4nc(C(F)F)cc4C(F)F)CC3)n2)=NO1` (mixture of isomers) [I-42] displayed an Eff. % in the data set on Phytophthora infestans of 100%.

As to `COCC[S+]([O-])Cc1ccccc1C1CC(c2csc(C3CCN(C(=O)Cn4nc(C(F)F)cc4C(F)F)CC3)n2)=NO1` (mixture of isomers) [I-56], the Eff. % with Phytophthora infestans was 94%. Besides, the “logp [a]” value in data set [1] was 2.52[a].

`CC1(c2ccccc2OS(C)(=O)=O)CC(c2csc(C3CCN(C(=O)Cn4nc(C(F)F)cc4C(F)F)CC3)n2)=NO1` (racemic) [I-43] displayed an Eff. % in the data set on Phytophthora infestans of 94%. In addition, in data set [1], the “logp [a]” value was 3.16[a], and the “logp [b]” value is 3.09[b].

On to `Cc1cc(C(F)F)nn1CC(=O)N1CCC(c2nc(C3=NOC(C)(c4ccccc4OS(C)(=O)=O)C3)cs2)CC1` (racemic) [I-44], for which the Eff. % with Phytophthora infestans amounted to 94%. Besides, in data set [1], the “logp [a]” value was 2.86[a], and the “logp [b]” value is 2.8[b].

For `COCCS(=O)(=O)Cc1ccccc1C1CC(c2csc(C3CCN(C(=O)Cn4nc(C(F)(F)F)cc4C)CC3)n2)=NO1` (racemic) [I-45], in the data set on Phytophthora infestans, the Eff. % is 94%. Moreover, the “logp [a]” value in data set [1] is 3.64[a].

`Cc1ccc(S(=O)(=O)Oc2ccccc2C2(C)CC(c3csc(C4CCN(C(=O)Cn5nc(C(F)F)cc5C(F)F)CC4)n3)=NO2)cc1` (racemic) [I-48] registered an Eff. % with Phytophthora infestans of 94%. Further, in data set [1], the “logp [a]” value is 4.31[a], and the “logp [b]” value was 4.15[b].

In the data set on Phytophthora infestans, `Cc1ccc(S(=O)(=O)Oc2ccccc2C2(C)CC(c3csc(C4CCN(C(=O)Cn5nc(C(F)F)cc5C)CC4)n3)=NO2)cc1` (racemic) [I-49] came in with an Eff. % of 94%. In data set [1], the “logp [a]” value is 4.05[a], and the “logp [b]” value is 3.9[b].

In the data set with Phytophthora infestans, `CS(=O)(=O)Oc1ccc(F)c(C2CC(c3csc(C4CCN(C(=O)Cn5nc(C(F)F)cc5C(F)F)CC4)n3)=NO2)c1F` (racemic) [I-50] registered an Eff. % of 94%. In data set [1], the “logp [a]” value is 2.95[a], and the “logp [b]” value is 2.88[b].

`Cc1cc(C(F)F)nn1CC(=O)N1CCC(c2nc(C3=NOC(c4ccccc4OS(C)(=O)=O)C3)cs2)CC1` (racemic) [I-51]: in the data set on Phytophthora infestans, the Eff. % was found to be 97%. Moreover, in data set [1], the “logp [a]” value is 2.59[a], and the “logp [b]” value is 2.61[b].

Regarding `Cc1ccc(C)c(NC(=O)N2CCC(c3nc(C4=NOC(c5c(Cl)cccc5OS(C)(=O)=O)C4)cs3)CC2)c1` (racemic) [I-52], the Eff. % with Phytophthora infestans turned out to be 94%. In data set [1], the “logp [a]” value is 3.35[a], and the “logp [b]” value was 3.25[b].

Turning to `N#CCOc1ccc(Cl)cc1C1CC(c2csc(C3CCN(C(=O)Cn4nc(C(F)F)cc4C(F)F)CC3)n2)=NO1` (racemic) [I-58], in data set [1], the “logp [a]” value is 3.27[a], and the “logp [b]” value was 3.23[b].

As to `CS(=O)(=O)Oc1ccc(Cl)cc1C1CC(c2csc(C3CCN(C(=O)Cn4nc(C(F)F)cc4C(F)F)CC3)n2)=NO1` (racemic) [I-59], in data set [1], the “logp [a]” value was 3.27[a], and the “logp [b]” value was 3.25[b].

`O=C(Cn1nc(C(F)F)cc1C(F)F)N1CCC(c2nc(C3=NOC(c4ccccc4OCC#Cc4cccc5ccccc45)C3)cs2)CC1` (stereo not shown) [I-2] had an Eff. % in the data set on Phytophthora infestans of 100%. Besides, in data set [1], the “logp [a]” value was 4.81[a], and the “logp [b]” value was 4.68[b].

For `Cc1ccc(C2CC(c3csc(C4CCN(C(=O)Cn5nc(C(F)(F)F)cc5C)CC4)n3)=NO2)c(OS(C)(=O)=O)c1` (stereo not shown) [I-66], in data set [1], the “logp [a]” value is 3.26[a], and the “logp [b]” value is 3.21[b].

For the molecule `Cc1ccc(OS(C)(=O)=O)c(C2CC(c3csc(C4CCN(C(=O)Cn5nc(C(F)F)cc5C(F)F)CC4)n3)=NO2)c1` (stereo not shown) [I-67], in data set [1], the “logp [a]” value was 3.22[a], and the “logp [b]” value was 3.11[b].

As to `C#CCOCc1cccc(F)c1C1CC(c2csc(C3CCN(C(=O)Cn4nc(C(F)F)cc4C(F)F)CC3)n2)=NO1` (stereo not shown) [I-68], the “logp [a]” value in data set [1] is 3.3[a].

`CC(=O)OCc1cccc(F)c1C1CC(c2csc(C3CCN(C(=O)Cn4nc(C(F)F)cc4C(F)F)CC3)n2)=NO1` (stereo not shown) [I-69]: in data set [1], the “logp [a]” value was 3.12[a].

As to `Cc1ccc(C2CC(c3csc(C4CCN(C(=O)Cn5nc(C(F)F)cc5C(F)F)CC4)n3)=NO2)c(OS(C)(=O)=O)c1` (stereo not shown) [I-72], in data set [1], the “logp [a]” value was 3.2[a], and the “logp [b]” value was 3.12[b].

As to `Cc1cc(C(F)F)n(CC(=O)N2CCC(c3nc(C4=NOC(c5ccccc5OS(C)(=O)=O)C4)cs3)CC2)n1` (stereo not shown) [I-73], in data set [1], the “logp [a]” value was 2.65[a], and the “logp [b]” value was 2.58[b].

As to `Cc1cc(C(F)(F)F)nn1CC(=O)N1CCC(c2nc(C3=NOC(c4c(F)ccc(OS(C)(=O)=O)c4F)C3)cs2)CC1` (stereo not shown) [I-79], in data set [1], the “logp [a]” value is 3.02[a], and the “logp [b]” value is 2.94[b].

For `N#CCOc1ccc(F)c(C2CC(c3csc(C4CCN(C(=O)Cn5nc(C(F)F)cc5C(F)F)CC4)n3)=NO2)c1F` (stereo not shown) [I-80], in data set [1], the “logp [a]” value was 2.96[a], and the “logp [b]” value is 2.85[b].

In the case of `COc1cccc(OS(C)(=O)=O)c1C1(C)CC(c2csc(C3CCN(C(=O)Cn4nc(C(F)F)cc4C(F)F)CC3)n2)=NO1` (stereo not shown) [I-88], in data set [1], the “logp [a]” value is 3.17[a], and the “logp [b]” value was 3.11[b].

In the case of `COCC[S+]([O-])Cc1ccccc1C1CC(c2csc(C3CCN(C(=O)Cn4nc(C(F)(F)F)cc4C)CC3)n2)=NO1` (stereo not shown) [I-90], the “logp [a]” value in data set [1] was 2.53[a].

For the molecule `Cc1cc(OS(C)(=O)=O)c(C2(C)CC(c3csc(C4CCN(C(=O)Cn5nc(C(F)F)cc5C(F)F)CC4)n3)=NO2)cc1C` (stereo not shown) [I-91], in data set [1], the “logp [a]” value is 3.63[a], and the “logp [b]” value is 3.58[b].

`COc1ccc(OS(C)(=O)=O)c(C2(C)CC(c3csc(C4CCN(C(=O)Cn5nc(C(F)F)cc5C(F)F)CC4)n3)=NO2)c1OC` (stereo not shown) [I-92]: in data set [1], the “logp [a]” value was 3.28[a], and the “logp [b]” value was 3.25[b].

`CCS(=O)(=O)Oc1ccc(C2CC(c3csc(C4CCN(C(=O)Cn5nc(C(F)F)cc5C(F)F)CC4)n3)=NO2)cc1` (stereo not shown) [I-105]: in data set [1], the “logp [a]” value was 2.97[a], and the “logp [b]” value was 2.96[b].

In the case of `O=C(Cn1nc(C(F)F)cc1C(F)F)N1CCC(c2nc(C3=NOC(c4ccc(OS(=O)(=O)C5CC5)cc4)C3)cs2)CC1` (stereo not shown) [I-106], in data set [1], the “logp [a]” value was 3.06[a], and the “logp [b]” value was 3.05[b].

For the molecule `Cc1ccc(OCC#N)c(C2CC(c3csc(C4CCN(C(=O)Cn5nc(C(F)F)cc5C(F)F)CC4)n3)=NO2)c1` (stereo not shown) [I-141], in data set [1], the “logp [a]” value is 3.17[a], and the “logp [b]” value is 3.15[b].

For `Cc1ccc(C2CC(c3csc(C4CCN(C(=O)Cn5nc(C(F)(F)F)cc5C)CC4)n3)=NO2)c(OCC#N)c1` (stereo not shown) [I-142], in data set [1], the “logp [a]” value is 3.29[a], and the “logp [b]” value is 3.22[b].

In the case of `Cc1cc(C(F)F)nn1CC(=O)N1CCC(c2nc(C3=NOC(c4ccccc4OCC#N)C3)cs2)CC1` (stereo not shown) [I-143], in data set [1], the “logp [a]” value was 2.6[a], and the “logp [b]” value is 2.61[b].

Consider `Cc1ccc(C2CC(c3csc(C4CCN(C(=O)Cn5nc(C(F)F)cc5C(F)F)CC4)n3)=NO2)c(OCC#N)c1` (stereo not shown) [I-144], for which, in data set [1], the “logp [a]” value is 3.15[a], and the “logp [b]” value is 3.13[b].

Consider `CS(=O)(=O)Oc1c(Cl)cccc1C1CC(c2csc(C3CCN(C(=O)Cn4nc(C(F)F)cc4C(F)F)CC3)n2)=NO1` (stereo not shown) [I-145], for which, in data set [1], the “logp [a]” value was 3.19[a], and the “logp [b]” value is 3.19[b].

Consider `N#CCOc1c(Cl)cccc1C1CC(c2csc(C3CCN(C(=O)Cn4nc(C(F)F)cc4C(F)F)CC3)n2)=NO1` (stereo not shown) [I-146], for which, in data set [1], the “logp [a]” value was 3.14[a], and the “logp [b]” value was 3.26[b].
